Patent US20240307325A1, “COMPOUNDS, COMPOSITIONS, AND METHODS FOR TREATING OR AMELIORATING NONALCOHOLIC FATTY LIVER DISEASE AND RELATED DISEASES OR DISORDERS” (Thomas Jefferson University, priority 2021, published 2024)

Legend:
Oral bioavailability = settings: in vivo
CEREP Safety 44 panel = CEREP Safety 44 panel screen
mouse = experiment: Tumor xenograft experiments with daily oral dosing: tolerability; assay type: in vivo; settings: daily oral dosing extended beyond 4 weeks
liver = settings: even at doses that exceed the concentrations proposed herein; cited from earlier work
Sigma1 = Sigma1 (Homo sapiens, UniProt Q99720); settings: read-out: Ki (binds Sigma1)
HFD fed mice = experiment: High fat diet-induced hepatic steatosis and whitening of brown adipose tissue in mice; assay type: in vivo; settings: versus vehicle, H&E staining
Excerpt: FIG. 6A illustrate certain aspects of the study design. […] FIG. 6B show H&E staining images of liver from mice in FIG. 6A. […] Representative images from H&E-stained BAT of mice after an 8-week HFD. Images taken at 14×, scalebar=200 um.
(§1) Refer to FIGS. 5 and 6A-6C, pharmacological inhibition of Sigma1 phenocopy certain aspects of Sigma1 knockdown. […] The small molecule inhibitor IPAG also eliminate oleic acid, cholesterol, and glucose induced lipid droplets by lipophagy (FIG. 5).

TNFα = experiment: Pro-inflammatory cytokine levels in HT-29 cells: TNFα; assay type: cell-based, human
Excerpt: (§2) The fibrosis associated pro-inflammatory cytokines include soluble IL-6, TNFα, and IL-17, which are contributors to the progression of NAFLD to NASH with fibrosis.

IL-17 = experiment: Pro-inflammatory cytokine levels in HT-29 cells: IL-17; assay type: cell-based, human
Excerpt: as §2

lipid droplets = experiment: Oleic acid, cholesterol and glucose induced lipid droplets; assay type: cell-based; settings: by lipophagy
Excerpt: as §1

LNCaP cells = experiment: DHT-induced lipid droplet formation and accumulation in LNCaP cells (confocal, HCS-LipidTox stain); assay type: cell-based; settings: 72 h 1 nM DHT, compound 10 uM for the final 16 hours
Experimental: FIGS. 4A-4B illustrate the finding that Sigma1 (σ1) knockdown by transduction of SIGMAR1 targeted shRNA using a lentiviral vector abrogates lipid droplet (LD) accumulation, in accordance with some embodiments. FIG. 4A: Confocal micrographs of LNCaP cells treated with 72 hours (72 h) with dihydrotestosterone (DHT) to induce the formation and accumulation of LDs. Non-specific Control shRNA was compared to SIGMAR1 transcript selective shRNAs in lentiviral vectors. σ1 shR #4=MISSION/SigmaAldrich clone TRCN0000061010: σ1 shR #5=MISSION/SigmaAldrich clone TRCN0000061008. White boxes indicate areas magnified and shown immediately below. Note nearly complete elimination of LDs. FIG. 4B: Immunoblot confirming knockdown of Sigma1 by lentiviral Sigma1 (σ1) shRNAs. LDs are stained with HCS-LipidTox fluorescent stain in red. Blue DAPI stained nuclei.
FIG. 5 illustrates the finding that pharmacological Sigma1 modulator/inhibitor 1-(4-Iodophenyl)-3-(2-adamantyl)guanidine (IPAG) eliminates lipid droplets (LDs), in accordance with some embodiments. Confocal micrographs of LNCaP cells treated with 72 hours (72 h) with 1 nM dihydrotestosterone (DHT) to induce the formation and accumulation of LDs. In the far right panel, the LNCaP cells were treated with a prototypic Sigma1 selective small molecule compound, IPAG (10 uM), for the final 16 hours of the 72 h DHT treatment period. […]

Sigma1, sequence (Q99720 whole entry): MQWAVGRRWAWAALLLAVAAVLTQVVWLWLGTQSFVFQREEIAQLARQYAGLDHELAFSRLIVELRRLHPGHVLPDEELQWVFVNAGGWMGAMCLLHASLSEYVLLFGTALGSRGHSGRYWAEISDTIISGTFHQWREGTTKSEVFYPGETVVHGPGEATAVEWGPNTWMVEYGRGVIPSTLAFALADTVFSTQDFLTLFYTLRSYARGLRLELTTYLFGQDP

Row | SMILES | oral bioavailability (Oral bioavailability) | off-target liabilities (CEREP Safety 44 panel) | changes in mouse behavior (mouse) | changes in mouse body weight (mouse) | liver toxicity (liver) | Ki (Sigma1) [nM] | level of whitening of brown adipose tissue (HFD fed mice; HFD fed mice (8-week HFD), oral) | level of liver fat (HFD fed mice; HFD fed mice, oral (PO 3 days per week)) | level of TNFα (TNFα) | level of IL-17 (IL-17) | oleic acid, cholesterol, and glucose induced lipid droplets (lipid droplets) | lipid droplets (LDs) (LNCaP cells)
1 | N=C(NCCCOc1ccc(F)cc1)Nc1ccc(Cl)cc1 [CT-189, 1-(3-(4-fluorophenoxy)propyl)-3-(4-chlorophenyl)guanidine] | orally bioavailable | limited off-target liabilities | no detectable changes | no detectable changes | does not induce liver toxicity | 38 | significantly reduced | significantly reduced | suppresses levels | suppresses levels | – | –
2 | N=C(Nc1ccc(I)cc1)NC1C2CC3CC(C2)CC1C3 (stereo not drawn) [IPAG, 1-(4-Iodophenyl)-3-(2-adamantyl)guanidine] | – | – | – | – | – | – | – | – | – | – | eliminate | eliminates
